Laboratory results: patent US7250431B2, “Thiazole derivatives” (Hoffmann-La Roche Inc., priority 2003, dated 2007)

Target: T1, mouse NPY5-receptor (mNPY5) (Mus musculus, UniProt O70342)
T1 construct: The full-length cDNA encoding the mouse NPY5 (mNPY5) receptor was amplified from mouse brain cDNA; expressed in transfected cells; membranes used
T1 sequence (O70342 1-466): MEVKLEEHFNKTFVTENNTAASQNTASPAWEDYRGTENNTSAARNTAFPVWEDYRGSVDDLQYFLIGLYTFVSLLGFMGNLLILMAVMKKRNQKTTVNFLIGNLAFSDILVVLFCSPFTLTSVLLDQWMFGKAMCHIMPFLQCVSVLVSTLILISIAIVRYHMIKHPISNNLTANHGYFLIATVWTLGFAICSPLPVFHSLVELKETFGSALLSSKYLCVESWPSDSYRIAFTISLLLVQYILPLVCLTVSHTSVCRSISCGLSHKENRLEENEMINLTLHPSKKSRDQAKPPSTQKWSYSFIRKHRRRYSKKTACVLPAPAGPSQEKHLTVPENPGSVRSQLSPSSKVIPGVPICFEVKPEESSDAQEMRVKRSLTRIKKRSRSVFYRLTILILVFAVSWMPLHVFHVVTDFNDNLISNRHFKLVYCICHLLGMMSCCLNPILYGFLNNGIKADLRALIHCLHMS
Assay: Radioligand competition binding
Conditions: membranes of HEK293 cells expressing recombinant mNPY5; 100 pM [125I]labelled peptide YY; 1 h at 22° C.; read-out: NPY5-R (mouse) IC50
Source text: The full-length cDNA encoding the mouse NPY5 (mNPY5) receptor was amplified from mouse brain cDNA using specific primers, designed based on the published sequence, and Pfu DNA-Polymerase. The amplification product was subcloned into the mammalian expression vector pcDNA3 using Eco RI and XhoI restriction sites. Positive clones were sequenced and one clone, encoding the published sequence was selected for generation of stable cell clones.
Human embryonic kidney 293 (HEK293) cells were transfected with 10 μg mNPY5 DNA using the lipofectamine reagent. Two days after transfection, geneticin selection (1 mg/ml) was initiated and several stable clones were isolated. One clone was further used for pharmacological characterization.
Human embryonic kidney 293 cells (HEK293), expressing recombinant mouse NPY5-receptor (mNPY5) were broken by three freeze/thawing cycles in hypotonic Tris buffer (5 mM, pH 7.4, 1 mM MgCl2), homogenized and centrifuged at 72,000×g for 15 min. The pellet was washed twice with 75 mM Tris buffer, pH 7.4, containing 25 mM MgCl2 and 250 mM sucrose, 0.1 mM phenylmethylsulfonylfluoride and 0.1 mM 1,10-pheneanthrolin, resuspended in the same buffer and stored in aliquots at −80° C. Protein was determined according to the method of Lowry using bovine serum albumine (BSA) as a standard. […]

IC50 | SMILES
0.74 nM | Cc1ccccc1C(=O)c1cnc(Nc2ccc(NS(=O)(=O)c3cccc(F)c3)cc2)s1 [Example 5, 3-Fluoro-N-{4-[5-(2-methyl-benzoyl)-thiazol-2-ylamino]-phenyl}-benzenesulfonamide]
0.99 nM | Cc1ccccc1C(=O)c1cnc(Nc2ccc(CNS(=O)(=O)c3cc(F)ccc3C)cc2)s1 [Example 37, 5-Fluoro-2-methyl-N-{4-[5-(2-methyl-benzoyl)-thiazol-2-ylamino]-benzyl}-benzenesulfonamide]
0.54 nM | Cc1ccccc1C(=O)c1cnc(Nc2cccc(NS(=O)(=O)c3cccs3)c2)s1 [Example 23, Thiophene-2-sulfonic acid {3-[5-(2-methyl-benzoyl)-thiazol-2-ylamino]-phenyl}-amide]
